From ChEMBL document CHEMBL1201862, “PubChem BioAssay data set” (2004)
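Results reflect a 48-hour exposure of cells in 96-well plates to compound at five concentrations. GI50 marks 50% less growth.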 Calls of active or inactive are those of the source. Cut-off read from the data, not from the text of the source: active = GI50 up to about 1.1 µM and inactive = higher.

Experiments:
Assay in all cases: DTP human tumour cell line panel, 48 h
T47D = system: T47D
NCI-H23 = system: NCI-H23
SF-295 = system: SF-295
SF-268 = system: SF-268
NCI/ADR-RES = system: NCI/ADR-RES
SK-MEL-5 = system: SK-MEL-5
U-251 = system: U-251
IGROV-1 = system: IGROV-1
NCI-H226 = system: NCI-H226
COLO 205 = system: COLO 205
Malme-3M = system: Malme-3M
RPMI-8226 = system: RPMI-8226
TK-10 = system: TK-10
HT-29 = system: HT-29
OVCAR-3 = system: OVCAR-3
MOLT-4 = system: MOLT-4
ACHN = system: ACHN
SNB-75 = system: SNB-75
SR = system: SR
EKVX = system: EKVX

| Compound | GI50 (T47D) | GI50 (NCI-H23) | GI50 (SF-295) | GI50 (SF-268) | GI50 (NCI/ADR-RES) | GI50 (SK-MEL-5) | GI50 (U-251) | GI50 (IGROV-1) | GI50 (NCI-H226) | GI50 (COLO 205) | GI50 (Malme-3M) | GI50 (RPMI-8226) | GI50 (TK-10) | GI50 (HT-29) | GI50 (OVCAR-3) | GI50 (MOLT-4) | GI50 (ACHN) | GI50 (SNB-75) | GI50 (SR) | GI50 (EKVX) |
| --- | --- | --- | --- | --- | --- | --- | --- | --- | --- | --- | --- | --- | --- | --- | --- | --- | --- | --- | --- | --- |
| CCCC(Sc1nc(N)nc2nc[nH]c12)C(=O)O (centres undefined) | > 100 µM (inactive) | > 100 µM (inactive) | 59.7 µM (inactive) | 46.8 µM (inactive) | 41.9 µM (inactive) | > 100 µM (inactive) | > 100 µM (inactive) | > 100 µM (inactive) | > 100 µM (inactive) | > 100 µM (inactive) | > 100 µM (inactive) | 35.2 µM (inactive) | 26.6 µM (inactive) | 78.5 µM (inactive) | > 100 µM (inactive) | 33.2 µM (inactive) | > 100 µM (inactive) | > 100 µM (inactive) |  |  |
| CN(C)c1ccc(/C=c2/c3ccccc3n3c2cc(/C=C/c2ccccc2)[n+]3C)cc1 | 0.0164 µM (active) | 0.0783 µM (active) | 0.225 µM (active) | 0.114 µM (active) |  | 0.144 µM (active) | 0.0399 µM (active) | 0.145 µM (active) | 0.11 µM (active) | 0.073 µM (active) | 0.233 µM (active) | 0.0208 µM (active) | 0.393 µM (active) | 0.142 µM (active) | 0.141 µM (active) | 0.0743 µM (active) | 0.255 µM (active) | 0.033 µM (active) | 0.0367 µM (active) | 0.265 µM (active) |
| NCCCN(CCCCN(CCCN)Cc1ccccc1)Cc1ccccc1 | > 100 µM (inactive) | 42.2 µM (inactive) | 69 µM (inactive) | 14.3 µM (inactive) | > 100 µM (inactive) | 57.8 µM (inactive) | 42.3 µM (inactive) | 17.1 µM (inactive) | 21.2 µM (inactive) | 32.4 µM (inactive) | 33.3 µM (inactive) | > 100 µM (inactive) | > 100 µM (inactive) | 17.3 µM (inactive) |  | 20.1 µM (inactive) | 32.4 µM (inactive) | 4.57 µM (inactive) |  | 21.2 µM (inactive) |
| CC(O)C(O)C(O)C(/C=N\Nc1ccccc1)=N/Nc1ccccc1 (centres undefined) | 6.21 µM (inactive) | 11.9 µM (inactive) | 11.6 µM (inactive) | 10.2 µM (inactive) | 11.2 µM (inactive) | 15.1 µM (inactive) | 13.9 µM (inactive) | 8.49 µM (inactive) |  | 14.3 µM (inactive) | 20 µM (inactive) | 18.3 µM (inactive) | 12.6 µM (inactive) | 15.9 µM (inactive) | 8.55 µM (inactive) | 18.7 µM (inactive) | 10.8 µM (inactive) | 16.7 µM (inactive) | 17.3 µM (inactive) | 12.1 µM (inactive) |
| Cc1ccc2nc(-c3ccc(NC(=O)c4ccc(N)cc4)c(S(=O)(=O)O)c3)sc2c1 | > 100 µM (inactive) | > 100 µM (inactive) | > 100 µM (inactive) | > 100 µM (inactive) | > 100 µM (inactive) | > 100 µM (inactive) | > 100 µM (inactive) | > 100 µM (inactive) | > 100 µM (inactive) | > 100 µM (inactive) | > 100 µM (inactive) | > 100 µM (inactive) | > 100 µM (inactive) | > 100 µM (inactive) | > 100 µM (inactive) | > 100 µM (inactive) | > 100 µM (inactive) | > 100 µM (inactive) |  | > 100 µM (inactive) |
| C/C(=N\NC(=S)N(C)C)c1ccccn1 | < 0.01 µM (active) | < 0.01 µM (active) | < 0.01 µM (active) | < 0.0317 µM (active) | < 0.01 µM (active) | 0.178 µM (active) | < 0.01 µM (active) | < 0.01 µM (active) | 0.148 µM (active) | < 0.01 µM (active) | 0.219 µM (active) | < 0.0379 µM (active) | 0.564 µM (active) | < 0.01 µM (active) | < 0.01 µM (active) | < 0.01 µM (active) | < 0.0122 µM (active) | 0.486 µM (active) |  | 0.0284 µM (active) |
| c1ccc([P+](CCSCCSCC[P+](c2ccccc2)(c2ccccc2)c2ccccc2)(c2ccccc2)c2ccccc2)cc1 | > 100 µM (inactive) | > 100 µM (inactive) | 33 µM (inactive) | > 100 µM (inactive) | > 100 µM (inactive) | > 100 µM (inactive) | 24.7 µM (inactive) | > 100 µM (inactive) | > 100 µM (inactive) | > 100 µM (inactive) |  |  | > 100 µM (inactive) | > 100 µM (inactive) | > 100 µM (inactive) | > 100 µM (inactive) | > 100 µM (inactive) | > 100 µM (inactive) |  | > 100 µM (inactive) |
